Assay type in all cases: functional
For experiment [1], the species on record is Cavia porcellus. The experiment in a line: Inhibition of electrically evoked twitches in guinea pig ileum relative to morphine.
The species entered for experiment [2] is Mus musculus. The experiment in a line: Analgesic activity in mice by using hot plate method.
For experiment [3], the species on record is Cavia porcellus. The experiment in a line: Inhibition of twitches in guinea pig ileum.

Here are results for eight compounds from ChEMBL document CHEMBL1122436, “Structure-activity studies of dermorphin. Synthesis and some pharmacological data of dermorphin and its 1-substituted analogues” (J Med Chem, 1983).

Take `C[C@@H](NC(=O)[C@H](N)Cc1ccccc1)C(=O)N[C@@H](Cc1ccccc1)C(=O)NCC(=O)N[C@@H](Cc1ccc(O)cc1)C(=O)N1CCC[C@H]1C(=O)N[C@@H](CO)C(N)=O`: the Relative potency in experiment [1] is recorded as 0.0042. In experiment [2], the ED50 is more than 0.001 M/kg.

In turn, `C[C@H](N)C(=O)N[C@H](C)C(=O)N[C@@H](Cc1ccccc1)C(=O)NCC(=O)N[C@@H](Cc1ccc(O)cc1)C(=O)N1CCC[C@H]1C(=O)N[C@@H](CO)C(N)=O` had a Relative potency in experiment [1] of 0.0017. This compound had an ED50 in experiment [2] of 6.1e-05 M/kg.

Regarding `C[C@@H](NC(=O)[C@@H](N)Cc1ccccc1)C(=O)N[C@@H](Cc1ccccc1)C(=O)NCC(=O)N[C@@H](Cc1ccc(O)cc1)C(=O)N1CCC[C@H]1C(=O)N[C@@H](CO)C(N)=O`, in experiment [1], the Relative potency stood at 0.026. In addition, the ED50 in experiment [2] worked out at 1.55e-05 M/kg.

In the case of `COc1ccc(C[C@H](N)C(=O)N[C@H](C)C(=O)N[C@@H](Cc2ccccc2)C(=O)NCC(=O)N[C@@H](Cc2ccc(O)cc2)C(=O)N2CCC[C@H]2C(=O)N[C@@H](CO)C(N)=O)cc1`, the Relative potency in experiment [1] worked out at 40.5. In experiment [2], the ED50 turned out to be 6e-05 M/kg.

On to `CC(=O)N[C@@H](Cc1ccc(O)cc1)C(=O)N[C@H](C)C(=O)N[C@@H](Cc1ccccc1)C(=O)NCC(=O)N[C@@H](Cc1ccc(O)cc1)C(=O)N1CCC[C@H]1C(=O)N[C@@H](CO)C(N)=O`, for which the Relative potency in experiment [1] is given as 0.0044. This compound showed an ED50 in experiment [2] of more than 0.001 M/kg.

In general, IC50 refers to the concentration that inhibits the measured activity by half. Higher therefore signals a need for much substance. In turn, `CSCC[C@H](NC(=O)[C@H](Cc1ccccc1)NC(=O)CNC(=O)[C@@H](C)NC(=O)[C@@H](N)Cc1ccc(O)cc1)C(N)=O` showed an IC50 in experiment [3] of 2.5 nM. The same compound had a Relative potency in experiment [1] of 30.

In the case of `C[C@@H](NC(=O)[C@@H](N)Cc1ccc(O)cc1)C(=O)N[C@@H](Cc1ccccc1)C(=O)NCC(=O)N[C@@H](Cc1ccc(O)cc1)C(=O)N1CCC[C@H]1C(=O)N[C@@H](CO)C(N)=O` [DERMORPHIN], in experiment [3], half-maximal inhibition (IC50) required 0.052 nM. Besides, the Relative potency in experiment [1] worked out at 1440. For the same compound, in experiment [2], the ED50 is 9.5e-07 M/kg.

For `CN1CC[C@]23c4c5ccc(O)c4O[C@H]2[C@@H](O)C=C[C@H]3[C@H]1C5` [MORPHINE], the ED50 in experiment [2] turned out to be 1.7e-06 M/kg.
